Here are results for two molecules from BindingDB's records for PubMed 35189320 (Dr.Vishwanath Karad MIT World Peace University, 2022).

This test deals with Sterol O-acyltransferase 1 (Homo sapiens) (UniProt P35610). As to the kind of experiment: Inhibition of human ACAT1 in HepG2 cells assessed as inhibition of […] synthesis incubated for 1 hrs followed by 13C-addition of 13C-oleic acid pre-complexed with fatty acid free BSA for 6 hrs by LC/MS/MS analysis.
Sterol O-acyltransferase 1 (Homo sapiens), sequence (P35610 whole entry, looked up): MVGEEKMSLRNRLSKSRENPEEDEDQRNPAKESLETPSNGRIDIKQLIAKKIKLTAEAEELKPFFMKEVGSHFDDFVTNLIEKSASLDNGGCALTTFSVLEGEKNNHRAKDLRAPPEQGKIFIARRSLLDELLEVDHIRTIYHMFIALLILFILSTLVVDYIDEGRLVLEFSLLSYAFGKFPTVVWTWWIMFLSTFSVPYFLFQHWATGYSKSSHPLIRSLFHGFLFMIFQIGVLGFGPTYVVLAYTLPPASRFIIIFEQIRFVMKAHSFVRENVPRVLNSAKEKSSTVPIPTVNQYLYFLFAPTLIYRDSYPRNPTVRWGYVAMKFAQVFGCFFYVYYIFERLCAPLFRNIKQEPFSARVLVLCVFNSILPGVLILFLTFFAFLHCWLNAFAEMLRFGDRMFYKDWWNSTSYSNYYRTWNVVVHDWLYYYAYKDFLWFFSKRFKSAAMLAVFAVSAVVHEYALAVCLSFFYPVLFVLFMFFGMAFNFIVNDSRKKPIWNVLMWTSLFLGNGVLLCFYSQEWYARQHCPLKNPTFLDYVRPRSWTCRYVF

Take `O=C(O)CC1CCC2(CC1)CCN(c1ccc(NC(=O)c3nnc(Nc4ccc(F)c(F)c4)o3)cn1)CC2`: the IC50 came to 45 nM. In the case of `O=C(Nc1ccc(N2CCC3(CC2)CC(C(=O)O)C3)nc1)c1nnc(Nc2ccc(F)c(F)c2)o1`, the IC50 is 2500 nM.
